Kd data for one compound are collected here from BindingDB's records for doi:10.1021/jm0104062 (Louis Pasteur University, 2002).

This assay deals with P2Y purinoceptor 1 (Homo sapiens, UniProt P47900). As to the kind of experiment: pA2 value was evaluated against P2Y purinoceptor 1.
Sequence of P2Y purinoceptor 1 (P47900 whole entry): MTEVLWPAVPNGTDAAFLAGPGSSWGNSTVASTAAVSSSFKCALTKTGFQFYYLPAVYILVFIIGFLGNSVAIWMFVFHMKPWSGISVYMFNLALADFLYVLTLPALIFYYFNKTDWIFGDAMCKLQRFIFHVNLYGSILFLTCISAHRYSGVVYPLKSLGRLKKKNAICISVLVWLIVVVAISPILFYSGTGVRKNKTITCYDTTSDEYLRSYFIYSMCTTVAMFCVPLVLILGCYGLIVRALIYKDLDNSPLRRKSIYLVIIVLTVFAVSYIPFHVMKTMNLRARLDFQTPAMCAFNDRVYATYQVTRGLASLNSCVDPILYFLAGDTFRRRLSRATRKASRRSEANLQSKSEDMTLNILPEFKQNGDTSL

`CNc1nc(C)nc2c1ncn2C1CC(OP(=O)(O)O)C(COP(=O)(O)O)O1` (stereo unspecified) gave a Kd of 77.6 nM.
